Data from patent EP0726257A1, “1-(Hetero)Arylvinyl-5H-2,3-benzodiazepine derivatives useful for the treatment of central nervous system disorders, and benzopyrylium intermediates for their preparation” (EGIS GYOGYSZERGYAR RT., priority 1995, dated 1996).
Like-named read-outs stand apart in the source and are kept apart here.

Experiments:
[1] = test system: spontaneous motor activity (SMA) in mice; experiment: Behavioural effects according to Irwin (decrease in spontaneous motor activity); type: in vivo; parameters: key: ++ strong; + moderate; +- slight decrease in spon-taneous motor activity [SMA]
Experimental: (§1) The behavioural effects of 1-[2'-(substituted) vinyl]-5H-2,3-benzodiazepine derivatives according to the invention and of reference substances were measured according to the method of Irwin (Psychopharmacology, 13, 222 [1968]). The results and the acute toxicity data (dead/treated animals, shown in brackets) can be seen in the following Table II
(§2) From the above Table II it can be taken that the 1-[2'-(substituted) vinyl]-5H-2,3-benzodiazepine derivatives according to the invention considerably decrease the spontaneous motor activity (SMA) in mice after intraperitoneal or oral administration.

[2] = test system: spontaneous motor activity of mice; experiment: Inhibition of spontaneous motor activity according to Borsy et al.; type: in vivo
Experimental: (§3) The potential antipsychotic activity of 1-[2'-(substituted) vinyl]-5H-2,3-benzodiazepine derivatives according to the invention and of reference substances was tested according to the method of Puech et al. (Psychopharmacology, 75, 84, [1981] by measuring their inhibiting effect on the "climbing" reaction induced by 5,6,6a,7-tetra-(hydro)-6-(methyl)-4H-dibenzo[de,g]quinoline-10,11-di-(ol){apomorphine}. The results have been expressed as ED50 values. Since the inhibition of the spontaneous motor activity (SMA) is an important characteristic of the antipsychotic drugs, the ED50 values of a number of compounds were determined according to the method of Borsy et al. (Arch. Int. Pharmacodyn., 124, 1, 196).
The effect of the 1-[2'-(substituted) vinyl]-5H-2,3-benzodiazepine derivatives according to the invention on the spontaneous motor activity was tested according to the method of Borsy et al. Groups consisting of 3 mice were treated orally with different doses of the compounds to be tested. Then the animals were placed into a 10-channel Dews system equipment, wherein the number of interruptions of infrared beam within 30 minutes was counted. […]

Catalepsy in rats = experiment: Cataleptic effect in rats (Morpurgo); type: in vivo; details: p.o.
Experimental: (§4) The cataleptic effect of the compounds was measured both in mice (Schlichtegroll: Arzneim. Forsch., 8, 489, [1958]) and in rats (Morpurgo: Arch. Int. Pharmacodyn., 137, 87, [1962]).

Catalepsy in mice = experiment: Cataleptic effect in mice (Schlichtegroll); type: in vivo; details: p.o.
Experimental: as §4

[3] = test system: "climbing" reaction induced by 5,6,6a,7-tetra-(hydro)-6-(methyl)-4H-dibenzo[de,g]quinoline-10,11-di-(ol){apomorphine}; experiment: Inhibition of apomorphine-induced climbing according to Puech et al.; type: in vivo
Experimental: as §3

[4] = target: homophthalazine binding site; experiment: Displacement of 3H-girisopam from the homophthalazine binding site in rat brain striatal membrane preparation; details: displacing 5 nM 3H-girisopam
Experimental: Ki values were calculated according to the following equation: Ki = IC50 :(1 +([L])/(KD)), [formula] wherein KD is the dissociation constant of the labelled ligand-receptor complex, [L] is the concentration of the labelled ligand and IC50 is the half maximal inhibitory concentration of the test compound.

rats [5] = experiment: Lick-conflict test (Vogel et al.), anxiolytic activity; type: in vivo; details: Rattus norvegicus, po, read-out: Minimal effective dose [MED] Lick conflict
Description: (§5) The anxiolytic activity was studied in rats according to the "lick-conflict" test elaborated by Vogel et al. (Psychopharmacology, 21, 1, [1971] and the elevated plus-maze test described by Pellow (Pellow, J.: Neurosci. Meth. 14, 149, [1985]). The antiaggressive effect was investigated in mice using the "fighting behaviour" method of Tedeschi (J. Pharm. Exp. Ther., 125, 28, [1959]). The minimal effective dose (MED) values and the ED50 values obtained are shown in the following Table V.

mice [6] = experiment: Acute toxicity (dead/treated animals) in the Irwin test; type: in vivo
Experimental: as §1, §2

mice [7] = experiment: Fighting behaviour method of Tedeschi, antiaggressive effect; type: in vivo; details: Mus musculus, po, read-out: ED50 Fighting behaviour
Description: as §5

rats [8] = experiment: Elevated plus-maze test (Pellow), anxiolytic activity; type: in vivo; details: Rattus norvegicus, ip, read-out: Minimal effective dose [MED] Elevated + Maze
Description: as §5
The anxiolytic activity of these compounds was investigated in the elevated plus maze test. Male rats belonging to the Sprague Dawley strain and weighing 220 to 260 g were used as test animals. The test was carried out with the aid of a wooden plus-shaped maze elevated to a height of 50 cm and containing two enclosed and two open arms (50 cm long and 15 cm wide). After 60 minutes pretreatment the animals were placed into the maze and observed for 5 minutes. The drug effect was expressed as percent increase of the time spent on the open arms and number of open arm entries. The minimum effective dose (MED) which caused a significant increase of the time spent on the open arms was calculated for every substance [Pelow, S., Chopin, P., File, S.E., Briley, M.: J. Neurosci. Methods 14, 149 to 167 [1985]).

[9] = Mus musculus, po; read-out: Spontaneous motor activity SMA ED50
[10] = po; read-out: {apomorphine} Climbing ED50
[11] = Mus musculus, po, read-out: Spontaneous motor activity SMA ED50

| Structure (SMILES) | Behaviour ([1]; 300 mg/kg i.p.) | Behaviour ([1]; 1000 mg/kg p.o.) | ED50 [2, 9] | Catalepsy in rats Minimal effective dose [MED] (Catalepsy in rats) | Catalepsy in mice Minimal effective dose [MED] (Catalepsy in mice) | ED50 [3, 10] | Ki [4] | minimal effective dose (rats [5]; rats) | acute toxicity (dead/treated animals) (mice [6]; 300 mg/kg i.p.) | acute toxicity (dead/treated animals) (mice [6]; 1000 mg/kg p.o.) | ED50 (mice [7]; mice) | minimal effective dose (rats [8]; rats) | ED50 [2, 11] | {apomorphine} Climbing ED50 ([3]; p.o.) | ED50 (mice [7]) | minimal effective dose (rats [8]) | minimal effective dose (rats [5]) | ED50 ([3]; po, read-out: {apomorphine} Climbing ED50) |
| --- | --- | --- | --- | --- | --- | --- | --- | --- | --- | --- | --- | --- | --- | --- | --- | --- | --- | --- |
| COc1cc2c(cc1OC)C(C=Cc1cc(OC)c(OC)c(OC)c1)=NN=C(C)C2 [Example 6] | + | + | 9.3 mg/kg | >100 mg/kg | >100 mg/kg | 15 mg/kg | 0.011 µM | 1 mg/kg | 0/6 | 0/6 | – | – | – | – | – | – | – | – |
| COc1cc2c(cc1OC)C(C=Cc1cccs1)=NN=C(C)C2 [Example 70] | + + | + | – | >100 mg/kg | >100 mg/kg | – | 0.013 µM | 0.3 mg/kg | 2/6 | 0/6 | – | – | – | – | – | – | – | – |
| COc1cc2c(cc1OC)C(C=Cc1ccccc1F)=NN=C(C)C2 [Example 10] | + | + | – | >100 mg/kg | >100 mg/kg | – | 0.009 µM | 3 mg/kg | 0/6 | 0/6 | – | – | – | – | – | – | – | – |
| COc1ccc(C=CC2=NN=C(C)Cc3cc(OC)c(OC)cc32)cc1OC [Example 3, 1-[3',4'-Di-(methoxy)-styryl]-4-[methyl]-7,8-di-[methoxy]-5H-2,3-benzodiazepine] | + + | + + | 8.2 mg/kg | >100 mg/kg | 100 mg/kg | 6.7 mg/kg | 0.011 µM | 0.1 mg/kg | 5/6 | 5/6 | – | – | – | – | – | – | – | – |
| COc1cc2c(cc1OC)C(C=Cc1ccc(N)cc1)=NN=C(C)C2 [Example 73, 1-[4'-(Amino)-styryl]-4-[methyl]-7,8-di-[methoxy]-5H-2,3-benzodiazepine] | – | – | – | – | – | 1.8 mg/kg | 0.011 µM | – | – | – | 6.4 mg/kg | 2.5 mg/kg | – | – | – | – | – | – |
| COc1cc2c(cc1OC)C(C=Cc1ccc(C#N)cc1)=NN=C(C)C2 [Example 57] | – | – | – | >100 mg/kg | >100 mg/kg | – | 0.018 µM | 1 mg/kg | – | – | – | – | – | – | – | – | – | – |
| COc1cc2c(cc1OC)C(C=Cc1ccc(NC(C)=O)cc1)=NN=C(C)C2 [Example 84, 1-[4'-(Acetylamino)-styryl]-4-[methyl]-7,8-di-[methoxy]-5H-2,3-benzodiazepine] | + + | + + | – | – | – | 11 mg/kg | 0.005 µM | – | 0/5 | 1/5 | – | – | – | – | – | – | – | – |
| CNC1=Nc2ccc(Cl)cc2C(c2ccccc2)=[N+]([O-])C1 [chlorodiazepoxide, 7-(chloro)-2-(methylamino)-5-(phenyl)-3H-1,4-benzodiazepine-4-(oxide), reference compound] | – | – | – | – | – | – | – | – | – | – | – | – | 56 mg/kg | inactive | 9.2 mg/kg | 2.5 mg/kg | 5 mg/kg | – |
| COc1ccc(C=CC2=NN=C(C)Cc3cc(OC)c(OC)cc32)c(OC)c1 [Example 5, 1-[2',4'-Di-(methoxy)-styryl)-4-[methyl]-7,8-di-[methoxy]-5H-2,3-benzodiazepine] | + + | + + | – | – | – | – | 0.018 µM | – | 0/5 | 0/5 | 15 mg/kg | 1.25 mg/kg | – | – | – | – | – | – |
| COc1cc2c(cc1OC)C(c1cccc(Cl)c1)=NN=C(C)C2 [girisopam, 1-(3'-〈chloro〉-phenyl)-4-(methyl)-7,8-di-(methoxy)-5H-2,3-benzodiazepine, reference compound] | +- | – | – | – | – | – | 0.04 µM | – | 0/6 | – | – | – | 10 mg/kg | – | 7.7 mg/kg | 12.5 mg/kg | 10 mg/kg | 12 mg/kg |
